# From patent US10294202B2, “Pyrrolidinones as herbicides” (FMC Corporation, priority 2013, dated 2019)
# How the values were obtained:
# crabgrass, large = test: Test C pre-/postemergence herbicide test; format: in vivo, Digitaria sanguinalis
# Summary of the method: (§1)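 Response scores range from 0, meaning no effect, to 100, meaning complete control, assigned visually by comparison with controls roughly two weeks (13 to 15 days) after spraying. Applications were made preemergence to seeded loam–sand soil and postemergence to 1- to 4-leaf plants.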
# wheat = test: Test A pre-/postemergence herbicide test; format: in vivo, Triticum aestivum; conditions: Postemergence
# Summary of the method: (§2)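 Scoring was visual, relative to untreated controls, on a 0–100 scale after about 10 greenhouse days. Preemergence treatment used a directed soil spray over seeded loam/sand; postemergence treatment targeted one- to two-leaf plants of 2–10 cm.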
# morningglory = test: Test C pre-/postemergence herbicide test; format: in vivo, Ipomoea coccinea
# Summary of the method: as §1
# pigweed = test: Test A pre-/postemergence herbicide test; format: in vivo, Amaranthus retroflexus
# Summary of the method: as §2
# ryegrass, Italian = test: Test C pre-/postemergence herbicide test; format: in vivo, Lolium multiflorum
# Summary of the method: as §1
# barnyardgrass = test: Test A pre-/postemergence herbicide test; format: in vivo, Echinochloa crus-galli
# Summary of the method: as §2
# wheat (winter wheat) = test: Test C pre-/postemergence herbicide test; format: in vivo, Triticum aestivum; conditions: for Plant response rating, Wheat: Postemergence
# Summary of the method: as §1
# corn [1] = test: Test C pre-/postemergence herbicide test; format: in vivo, Zea mays
# Summary of the method: as §1
# soybean = test: Test C pre-/postemergence herbicide test; format: in vivo, Glycine max
# Summary of the method: as §1
# corn [2] = test: Test A pre-/postemergence herbicide test; format: in vivo, Zea mays; conditions: Postemergence
# Summary of the method: as §2
# galium = test: Test C pre-/postemergence herbicide test; format: in vivo, Galium aparine
# Summary of the method: as §1
# johnsongrass = test: Test C pre-/postemergence herbicide test; format: in vivo, Sorghum halepense
# Summary of the method: as §1
# foxtail, giant = test: Test C pre-/postemergence herbicide test; format: in vivo, Setaria faberii
# Summary of the method: as §1
# [3] = Postemergence, 31 g ai/ha, scale 0 to 100 (0 no effect, 100 complete control)
# [4] = Postemergence, 62 g ai/ha, scale 0 (no effect) to 100 (complete control)
# [5] = Postemergence, 125 g ai/ha, scale 0 to 100 (0 no effect, 100 complete control)
# [6] = Postemergence, 250 g ai/ha, scale 0 to 100 (0 no effect, 100 complete control)
# [7] = Preemergence, 31 g ai/ha, scale 0 to 100, 0 is no effect and 100 is complete control
# [8] = Preemergence, 62 g ai/ha, scale 0 to 100 (0 no effect, 100 complete control)
# [9] = Preemergence, 125 g ai/ha, scale 0 to 100 (0 no effect, 100 complete control)
# [10] = 500 g ai/ha, 0 to 100 scale (0 no effect, 100 complete control)
# [11] = Postemergence, 500 g ai/ha, 0 to 100 scale (0 no effect, 100 complete control)
# [12] = Preemergence, 125 g ai/ha, 0 to 100 scale where 0 is no effect and 100 is complete control
# [13] = preemergence, 500 g ai/ha, 0 to 100 scale, 0 is no effect and 100 is complete control
smiles,measurement,setting,value
O=C1NCC(c2cc(F)cc(F)c2)C1C(=O)Nc1cccc(F)c1F (racemic) [Compound 279],"Plant response rating, Crabgrass, Large","crabgrass, large; [3]",25
same,"Plant response rating, Crabgrass, Large","crabgrass, large; [4]",65
same,"Plant response rating, Crabgrass, Large","crabgrass, large; [5]",70
same,"Plant response rating, Crabgrass, Large","crabgrass, large; [6]",80
same,"Crabgrass, Large plant response rating","crabgrass, large; [7]",95
same,"Crabgrass, Large plant response rating","crabgrass, large; [8]",95
same,"Plant response rating, Crabgrass, Large","crabgrass, large; [9]",98
same,"Plant response rating (scale of 0 to 100), Crabgrass, Large","crabgrass, large; Preemergence, 250 g ai/ha",100
same,"Plant response rating, Wheat","wheat; 125 g ai/ha, visual rating on 0 to 100 scale (0 no effect, 100 complete control), approx. 10 days",40
same,"Plant response rating, Wheat",wheat; [10],60
same,"Plant response rating, Morningglory",morningglory; [3],5
same,"Plant response rating, Morningglory",morningglory; [4],60
same,"Plant response rating, Morningglory",morningglory; [5],30
same,"Plant response rating, Morningglory",morningglory; [6],25
same,Morningglory plant response rating,morningglory; [7],0
same,Morningglory plant response rating,morningglory; [8],0
same,"Plant response rating, Morningglory",morningglory; [9],10
same,"Plant response rating (scale of 0 to 100), Morningglory","morningglory; Preemergence, 250 g ai/ha",10
same,"Plant response rating, Pigweed","pigweed; Postemergence, 125 g ai/ha, visual rating on 0 to 100 scale (0 no effect, 100 complete control), approx. 10 days",0
same,"Plant response rating, Pigweed",pigweed; [11],0
same,"Plant response rating, Pigweed",pigweed; [12],0
same,"Plant response rating, Pigweed",pigweed; [13],40
same,"Plant response rating, Ryegrass, Italian","ryegrass, Italian; [3]",0
same,"Plant response rating, Ryegrass, Italian","ryegrass, Italian; [4]",0
same,"Plant response rating, Ryegrass, Italian","ryegrass, Italian; [5]",0
same,"Plant response rating, Ryegrass, Italian","ryegrass, Italian; [6]",0
same,"Ryegrass, Italian plant response rating","ryegrass, Italian; [7]",0
same,"Ryegrass, Italian plant response rating","ryegrass, Italian; [8]",10
same,"Plant response rating, Ryegrass, Italian","ryegrass, Italian; [9]",30
same,"Plant response rating (scale of 0 to 100), Ryegrass, Italian","ryegrass, Italian; Preemergence, 250 g ai/ha",60
same,"Plant response rating, Barnyardgrass","barnyardgrass; Postemergence, 125 g ai/ha, 0 to 100 scale, 0 is no effect, 100 is complete control",80
same,"Plant response rating, Barnyardgrass",barnyardgrass; [11],90
same,"Plant response rating, Barnyardgrass",barnyardgrass; [12],80
same,"Plant response rating, Barnyardgrass",barnyardgrass; [13],90
same,"Plant response rating, Wheat","wheat (winter wheat); 31 g ai/ha, scale 0 to 100 (0 no effect, 100 complete control)",0
same,"Plant response rating, Wheat","wheat (winter wheat); 62 g ai/ha, scale 0 (no effect) to 100 (complete control)",0
same,"Plant response rating, Wheat","wheat (winter wheat); 125 g ai/ha, scale 0 to 100 (0 no effect, 100 complete control)",0
same,"Plant response rating, Wheat","wheat (winter wheat); 250 g ai/ha, scale 0 to 100 (0 no effect, 100 complete control)",0
same,Wheat plant response rating,wheat (winter wheat); [7],0
same,Wheat plant response rating,wheat (winter wheat); [8],15
same,"Plant response rating (scale of 0 to 100), Wheat","wheat (winter wheat); Preemergence, 250 g ai/ha",30
same,"Plant response rating, Corn",corn [1]; [3],0
same,"Plant response rating, Corn",corn [1]; [4],0
same,"Plant response rating, Corn",corn [1]; [5],0
same,"Plant response rating, Corn",corn [1]; [6],0
same,Corn plant response rating,corn [1]; [7],0
same,Corn plant response rating,corn [1]; [8],0
same,"Plant response rating, Corn",corn [1]; [9],5
same,"Plant response rating (scale of 0 to 100), Corn","corn [1]; Preemergence, 250 g ai/ha",65
same,"Plant response rating, Soybean",soybean; [3],40
same,"Plant response rating, Soybean",soybean; [4],10
same,"Plant response rating, Soybean",soybean; [5],0
same,"Plant response rating, Soybean",soybean; [6],10
same,Soybean plant response rating,soybean; [7],0
same,Soybean plant response rating,soybean; [8],0
same,"Plant response rating, Soybean",soybean; [9],0
same,"Plant response rating (scale of 0 to 100), Soybean","soybean; Preemergence, 250 g ai/ha",10
same,"Plant response rating, Corn","corn [2]; 125 g ai/ha, 0 to 100 scale, 0 is no effect, 100 is complete control",40
same,"Plant response rating, Corn",corn [2]; [10],70
same,"Plant response rating, Galium",galium; [3],0
same,"Plant response rating, Galium",galium; [4],15
same,"Plant response rating, Galium",galium; [5],30
same,"Plant response rating, Galium",galium; [6],30
same,Galium plant response rating,galium; [7],0
same,Galium plant response rating,galium; [8],0
same,"Plant response rating, Galium",galium; [9],85
same,"Plant response rating (scale of 0 to 100), Galium","galium; Preemergence, 250 g ai/ha",85
same,"Plant response rating, Johnsongrass",johnsongrass; [3],0
same,"Plant response rating, Johnsongrass",johnsongrass; [4],0
same,"Plant response rating, Johnsongrass",johnsongrass; [5],0
same,"Plant response rating, Johnsongrass",johnsongrass; [6],0
same,Johnsongrass plant response rating,johnsongrass; [7],0
same,Johnsongrass plant response rating,johnsongrass; [8],25
same,"Plant response rating, Johnsongrass",johnsongrass; [9],70
same,"Plant response rating (scale of 0 to 100), Johnsongrass","johnsongrass; Preemergence, 250 g ai/ha",80
same,"Plant response rating, Foxtail, Giant","foxtail, giant; [3]",0
same,"Plant response rating, Foxtail, Giant","foxtail, giant; [4]",30
same,"Plant response rating, Foxtail, Giant","foxtail, giant; [5]",90
same,"Plant response rating, Foxtail, Giant","foxtail, giant; [6]",90
same,"Foxtail, Giant plant response rating","foxtail, giant; [7]",90
same,"Foxtail, Giant plant response rating","foxtail, giant; [8]",95
same,"Plant response rating, Foxtail, Giant","foxtail, giant; [9]",98
same,"Plant response rating (scale of 0 to 100), Foxtail, Giant","foxtail, giant; Preemergence, 250 g ai/ha",98
